Data reported in patent publication US9963433B2, “Anticancer drugs including the chemical structures of an androgen receptor ligand and a histone deacetylase inhibitor” (Wayne State University, priority 2016, dated 2018).

Assays:
Format in all cases: cell-based
DLC1 mRNA in LNCaP cells = assay: In situ HDACi activity: DLC1 mRNA in LNCaP cells; settings: 10 μM, 48 h, normalized to GAPDH mRNA, FIG. 2E
Experimental: (§1) FIGS. 2A-2F show measurement of intrinsic and in situ HDACi activities. […]. IC50 values were calculated from nonlinear regression plots using GraphPad Prism5 software. (2B) Enz, 1002 and 3-52 were tested against HeLa cell nuclear extract at 10 μM and 25 μM and TSA (1 μM) was used as positive control. […] Recombinant HDAC6 was incubated with each drug at the indicated concentrations. IC50 values were calculated from nonlinear regression plots using GraphPad Prism5 software. (2D) Enz, 1002 and 3-52 were tested against recombinant HDAC6 at 10 μM and 25 μM and TSA (1 μM) was used as positive control. […]
(§2) Cell Culture and Reagents. LNCaP and 22Rv1 cell lines were from American Type Culture Collection (Manassas, Va.). C4-2 cells were kindly provided by Dr. Edwin Sanchez (University of Toledo). LNCaP and C4-2 cells were routinely grown at 37° C. in 5% CO2 in RPMI 1640 medium supplemented with 10% FBS (Invitrogen); 100 units/ml penicillin, 100 μg/ml streptomycin, 2 mM L-glutamine mixture (Invitrogen); and sodium pyruvate (1 mM) (Invitrogen). 22Rv1 cells were grown in RPMI 1640 medium supplemented with 10% FBS (Invitrogen); 100 units/ml penicillin, 100 μg/ml streptomycin, 2 mM L-glutamine mixture (Invitrogen). Affinity-purified rabbit anti-human antibody to AR (sc-816) and mouse anti-human antibody to GAPDH (sc-47724) were purchased from Santa Cruz Biotechnology (Santa Cruz, Calif.). Affinity-purified rabbit anti-human antibody to Hsp90 (C45G5) #4877 and rabbit anti-human antibody to acetylated lysine #9441 were purchased from Cell Signaling Technology. R1881 was kindly provided by Dr. Stephan Patrick (Karmanos Cancer Institute). All experiments were conducted using phenol-red free growth media. For hormone depletion, cells were grown in phenol-red free RPMI 1640 medium supplemented with 10% charcoal stripped FBS (Sigma-Aldrich) which was heat inactivated at 56° C. for thirty minutes, and a mixture of 100 units/ml penicillin, 100 μg/ml streptomycin and 2 mM L-glutamine for 96 h.
(§3) RNA isolation, Reverse Transcription, and Real Time PCR. Total RNA was isolated from cells using the RNeasy Mini Kit (Qiagen). Reverse transcription PCR was then performed using 500 ng of total RNA with random primers and using the high-capacity complementary DNA Archive kit (Applied Biosystems). The complementary DNA from this reaction was measured using quantitative real time PCR using the StepONE Plus Real Time PCR system (Life Technologies Corporation, Carlsbad, Calif.). All reactions were performed in triplicate and normalized to glyceraldehyde-3-phosphate-dehydrogenase values in the same samples. All primers and Taqman probes were purchased from the applied Biosystems inventory (Invitrogen) (Patki et al., 2015).
. […]

[1] = test system: TMPRSS2 mRNA (AR target gene) in C4-2 cells; assay: Inhibition of R1881 activation of TMPRSS2 mRNA in C4-2 cells; settings: hormone depleted 96 h, R1881 1 nM, compound 1-10 μM, 48 h, FIG. 3B
Experimental: (§4) Cell Culture and Reagents. LNCaP and 22Rv1 cell lines were from American Type Culture Collection (Manassas, Va.). C4-2 cells were kindly provided by Dr. Edwin Sanchez (University of Toledo). […] R1881 was kindly provided by Dr. Stephan Patrick (Karmanos Cancer Institute). All experiments were conducted using phenol-red free growth media.
as §3, with “samples.” for “samples. All primers and Taqman probes were purchased from the applied Biosystems inventory (Invitrogen) (Patki et al., 2015).”

[2] = test system: KLK3 mRNA (AR target gene) in C4-2 cells; assay: Inhibition of R1881 activation of KLK3 mRNA in C4-2 cells; settings: hormone depleted 96 h, R1881 1 nM, compound 1-10 μM, 48 h, FIG. 3A
Experimental: as §4
as §3, with “samples.” for “samples. All primers and Taqman probes were purchased from the applied Biosystems inventory (Invitrogen) (Patki et al., 2015).”

22Rv1 cells = assay: MTT cell viability assay, 22Rv1 cells; settings: Day 3, 0.1 μM-10 μM, FIG. 6E; for EC50: Homo sapiens, 22Rv1, 72 h, read-out: EC50, inhibition of growth of 22Rv1 cells
Experimental: (6A) C4-2 cells were seeded in 96-well plates and 24 h later, they were treated with the indicated compounds (0.1 μM-10 μM) or with vehicle (DMSO). Cell viability was measured by the MTT assay on Days 0 and 3 of treatment. EC50 values were calculated from nonlinear regression plots using GraphPad Prism5 software. […] Cell viability was measured by the MTT assay on Days 0 and 3 of treatment. […] Cell viability was measured by the MTT assay on Days 0 and 3 of treatment. […] (6D) 22Rv1 cells were infected with AR shRNA lentivirus, or control shRNA. 72 h after infection, cells were plated and viable cells were measured by the MTT assay on the indicated days (6D, bottom). Cells were also harvested for western blot analysis and probed with antibody to AR, which was also reactive with the AR splice variant AR-V7 (6D, top). (6E) 22Rv1 cells were seeded in 96-well plates and 24 h later, they were treated with the indicated compounds (0.1 μM-10 μM) or with vehicle (DMSO). Cell viability was measured by the MTT assay on Days 0 and 3 of treatment. EC50 values were calculated from nonlinear regression plots using GraphPad Prism5 software.
Cell Proliferation Assay. Cells were trypsinized and 6000 cells/well were seeded in 96-well plates coated with poly-D-lysine. The cells were seeded in phenol red-free medium supplemented with 10% FBS, 100 units/ml penicillin, 100 μg/ml streptomycin, 2 mM L-glutamine mixture and sodium pyruvate (1 mM) for C4-2 cells and phenol red-free medium supplemented with 10% FBS, 100 units/ml penicillin, 100 μg/ml streptomycin and 2 mM L-glutamine mixture for 22Rv1 cells. The cells were grown at 37° C. in 5% CO2. Twenty four hours after seeding in the 96-well plates, the cells were treated with indicated compound or DMSO (vehicle). The culture medium was not changed during the time course of the assay. On Day zero and on Day 3, cell viability was determined using the MTT assay. MTT (10 μL, 5 mg/mL) was added to each well and incubated for 2 h at 37° C. The formazan crystal sediments were dissolved in 100 μL of DMSO, and the absorbance at 570 nm was measured using the BioTek Synergy 2 Microplate Reader (BioTek, Winooski, Vt.). […] IC50 values were calculated from nonlinear […] plots using GraphPad Prism5 software.

DLC1 mRNA in C4-2 cells = assay: In situ HDACi activity: DLC1 mRNA in C4-2 cells; settings: 48 h, normalized to GAPDH mRNA, FIG. 2F
Experimental: as §1, §2, §3
. […]

Row | SMILES | DLC1 mRNA expression (DLC1 mRNA in LNCaP cells) | inhibition of activation of TMPRSS2 by R1881 [1] | inhibition of activation of KLK3 by R1881 [2] | effect on growth of 22Rv1 cells (22Rv1 cells) | DLC1 mRNA expression (DLC1 mRNA in C4-2 cells) | EC50 (22Rv1 cells) [µM]
1 | CNC(=O)c1ccc(N2C(=S)N(c3ccc(C#N)c(C(F)(F)F)c3)C(=O)C2(C)C)cc1F [Enz, Enzalutamide, reference compound] | had no effect | progressive inhibition at higher doses | progressive inhibition at higher doses | not | had no effect | 
2 | CC1(C)C(=O)N(c2ccc(C#N)c(C(F)(F)F)c2)C(=S)N1c1ccc(C(=O)NCCCCCCC(=O)NO)c(F)c1 [Compound 2-75, 4-(3-(4-cyano-3-(trifluoromethyl)phenyl)-5,5-dimethyl-4-oxo-2-thioxoimidazolidin-1-yl)-2-fluoro-N-(7-(hydroxyamino)-7-oxoheptyl)benzamide] | poor inducers of DLC1 mRNA compared with SAHA | better inhibitors of gene activation by androgen compared with either Enz or SAHA | better inhibitors of gene activation by androgen compared with either Enz or SAHA |  | poor inducers of DLC1 mRNA compared with SAHA | 4.68
3 | CC1(C)C(=O)N(c2ccc(C#N)c(C(F)(F)F)c2)C(=S)N1c1ccc(/C=C/C(=O)NO)c(F)c1 [Compound 1005, (E)-3-(4-(3-(4-cyano-3-(trifluoromethyl)phenyl)-5,5-dimethyl-4-oxo-2-thioxoimidazolidin-1-yl)-2-fluorophenyl)-N-hydroxyacrylamide] | poor inducers of DLC1 mRNA compared with SAHA | better inhibitors of gene activation by androgen compared with either Enz or SAHA | better inhibitors of gene activation by androgen compared with either Enz or SAHA |  | poor inducers of DLC1 mRNA compared with SAHA | 4.17
